Measured values taken from ChEMBL document CHEMBL1255551, “Synthesis and biological evaluation of C-2 halogenated analogs of salvinorin A” (Bioorg Med Chem Lett, 2010).
Active and inactive are the calls of the source. The calls are words filed in the database; no cut-off is given here.

Experiments:
[1] = biological target: T1, Kappa-type opioid receptor (Homo sapiens, UniProt P41145); assay: Agonist activity at human kappa opioid receptor expressed in CHO cells assessed as increase of [35S]GTPgammaS binding at 240 nM relative to U50488H; type: functional, cell-based
T1 sequence (P41145 whole entry): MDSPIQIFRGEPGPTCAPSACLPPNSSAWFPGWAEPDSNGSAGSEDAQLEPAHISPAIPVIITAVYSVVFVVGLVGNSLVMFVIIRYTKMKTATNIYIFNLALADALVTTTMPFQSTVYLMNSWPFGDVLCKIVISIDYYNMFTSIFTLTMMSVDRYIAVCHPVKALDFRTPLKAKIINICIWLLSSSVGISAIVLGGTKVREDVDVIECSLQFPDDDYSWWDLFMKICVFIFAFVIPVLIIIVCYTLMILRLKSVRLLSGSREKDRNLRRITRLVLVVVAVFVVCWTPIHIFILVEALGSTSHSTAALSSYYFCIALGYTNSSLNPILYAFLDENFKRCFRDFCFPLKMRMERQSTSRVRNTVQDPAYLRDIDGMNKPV

[2] = biological target: Delta-type opioid receptor (Mus musculus) (UniProt P32300); assay: Displacement of [3H]diprenorphine from mouse FLAG-tagged delta opioid receptor expressed in CHO cells at 3 uM; type: cell-based
Chain of Delta-type opioid receptor (Mus musculus) (P32300 whole entry): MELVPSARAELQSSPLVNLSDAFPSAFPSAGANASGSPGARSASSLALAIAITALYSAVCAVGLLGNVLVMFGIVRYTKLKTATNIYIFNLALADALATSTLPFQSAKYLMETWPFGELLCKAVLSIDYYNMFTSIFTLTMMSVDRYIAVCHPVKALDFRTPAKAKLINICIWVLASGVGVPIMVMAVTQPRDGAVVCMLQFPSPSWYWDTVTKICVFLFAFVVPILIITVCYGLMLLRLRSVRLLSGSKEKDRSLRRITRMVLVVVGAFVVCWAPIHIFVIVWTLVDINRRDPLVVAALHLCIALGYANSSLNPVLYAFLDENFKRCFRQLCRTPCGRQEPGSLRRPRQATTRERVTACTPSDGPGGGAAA

[3] = biological target: T1, Kappa-type opioid receptor; assay: Agonist activity at human kappa opioid receptor expressed in CHO cells assessed as increase of [35S]GTPgammaS binding; type: functional, cell-based
[4] = biological target: T1, Kappa-type opioid receptor; assay: Displacement of [3H]diprenorphine from human kappa opioid receptor expressed in CHO cells; type: cell-based
[5] = biological target: Mu-type opioid receptor (Rattus norvegicus) (UniProt P33535); assay: Displacement of [3H]diprenorphine from rat mu opioid receptor expressed in CHO cells at 3 uM; type: cell-based
Chain of Mu-type opioid receptor (Rattus norvegicus) (P33535 whole entry): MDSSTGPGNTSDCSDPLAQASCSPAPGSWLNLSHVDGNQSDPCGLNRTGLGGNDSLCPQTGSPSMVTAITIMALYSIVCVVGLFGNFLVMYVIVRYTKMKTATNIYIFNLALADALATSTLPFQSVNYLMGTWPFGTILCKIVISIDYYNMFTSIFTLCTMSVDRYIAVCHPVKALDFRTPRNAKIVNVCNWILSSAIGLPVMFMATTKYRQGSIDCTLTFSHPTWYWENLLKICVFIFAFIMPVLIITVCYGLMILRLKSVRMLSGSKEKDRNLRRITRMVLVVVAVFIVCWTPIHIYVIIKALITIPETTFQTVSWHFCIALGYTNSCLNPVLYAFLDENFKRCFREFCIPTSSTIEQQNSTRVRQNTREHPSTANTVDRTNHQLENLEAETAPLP

[6] = biological target: T1, Kappa-type opioid receptor; assay: Displacement of [3H]diprenorphine from human kappa opioid receptor expressed in CHO cells at 3 uM; type: cell-based

| Compound | Emax [1] | Activity [2] | EC50 [3] | Ki [4] | Activity [5] | inhibition [6] |
| --- | --- | --- | --- | --- | --- | --- |
| COC(=O)[C@@H]1C[C@@H](Br)C(=O)[C@H]2[C@@]1(C)CC[C@H]1C(=O)O[C@H](c3ccoc3)C[C@]21C | 90% | inactive | 282 nM | 42.3 nM | inactive | > 50% |
| COC(=O)[C@@H]1C[C@@H](Cl)C(=O)[C@H]2[C@@]1(C)CC[C@H]1C(=O)O[C@H](c3ccoc3)C[C@]21C | 112% | inactive | 673 nM | 167 nM | inactive | > 50% |
| COC(=O)[C@@H]1C[C@H](I)C(=O)[C@H]2[C@@]1(C)CC[C@H]1C(=O)O[C@H](c3ccoc3)C[C@]21C | 92% | inactive | 648 nM | 198 nM | inactive | > 50% |
| COC(=O)[C@@H]1C[C@@H](Br)C2=C3[C@@](C)(C[C@H](c4ccoc4)O2)C(C(=O)O)CC[C@]31C (stereo partly drawn) | – | inactive | – | > 1000 nM | inactive | > 50% |
| COC(=O)[C@@H]1CCC(=O)[C@H]2[C@@]1(C)CC[C@H]1C(=O)O[C@H](c3ccoc3)C[C@]21C | 124% | inactive | 266 nM | 51.6 nM | inactive | > 50% |
| COC(=O)[C@@H]1C[C@@H](I)C(=O)[C@H]2[C@@]1(C)CC[C@H]1C(=O)O[C@H](c3ccoc3)C[C@]21C | 46% | inactive | 239 nM | 245 nM | inactive | > 50% |
| COC(=O)[C@@H]1C[C@H](F)C(=O)[C@H]2[C@@]1(C)CC[C@H]1C(=O)O[C@H](c3ccoc3)C[C@]21C | – | inactive | – | > 1000 nM | inactive | > 50% |
| COC(=O)[C@@H]1C[C@@H](F)C(=O)[C@H]2[C@@]1(C)CC[C@H]1C(=O)O[C@H](c3ccoc3)C[C@]21C | 77% | inactive | 539 nM | 197 nM | inactive | > 50% |
| COC(=O)[C@@H]1C[C@H](OC(C)=O)C(=O)[C@H]2[C@@]1(C)CC[C@H]1C(=O)O[C@H](c3ccoc3)C[C@]21C | – | inactive | – | – | inactive | > 50% |
| COC(=O)[C@@H]1C[C@H](Cl)C(=O)[C@H]2[C@@]1(C)CC[C@H]1C(=O)O[C@H](c3ccoc3)C[C@]21C | – | inactive | – | > 1000 nM | inactive | > 50% |
| COC(=O)[C@@H]1CC(C(=O)O)C(=O)[C@H]2[C@@]1(C)CC[C@H]1C(=O)O[C@H](c3ccoc3)C[C@]21C (stereo partly drawn) | 103% | inactive | 83.3 nM | 24.3 nM | inactive | > 50% |
| COC(=O)[C@@H]1C[C@H](Br)C(=O)[C@H]2[C@@]1(C)CC[C@H]1C(=O)O[C@H](c3ccoc3)C[C@]21C | 87% | inactive | 1970 nM | 422 nM | inactive | > 50% |
